Entries after “also recorded” stand apart in the source; their conditions may differ. Where two headings read alike, the source gives them in different places.
Key:
[1] = Pharmacokinetics of Compound A, plasma concentrations after IV infusion; format: in vivo, human; conditions: for AUC(0-inf) / AUC(0-t) / clearance / Cmax / half-life / Tmax: both sexes, human, plasma, intravenous
Procedure: (§1) Subjects underwent 3 separate treatment periods. […] PD will be unblinded for treatment but not subject. […] Participant Disposition
Pharmacokinetic samples were measured up to 24 hours after the start of the IV infusion. […] Therefore, a fast decrease in concentration was observed, followed by a slow […].

[2] = tested on: healthy participants; assay: Safety and tolerability; format: in vivo, human
Description: as §1
Moreover, the only participant who developed phlebitis received placebo. […] No clinically meaningful differences between treatments were identified in any other safety parameter.

[3] = tested on: healthy participants; assay: Sedation (BIS), cardiovascular response and arterial blood gases; format: in vivo, human; conditions: versus placebo
[4] = tested on: healthy participants
[5] = tested on: healthy participants; conditions: cited from earlier work
[6] = Compound A (dose not given; third treatment), first hypoxic measurement under hypercapnic conditions, without propofol
[7] = Compound A (dose not given; third treatment), hypoxic/hypercapnic measurement during propofol high dose
[8] = Compound A low dose, first hypoxic measurement under hypercapnic conditions, without propofol
[9] = Compound A low dose, hypoxic/hypercapnic measurement during propofol high dose

CCCNc1nc(NCCC)nc(N(C)OC)n1 [Compound A]
AUCinf Min ([1]; ENA-001 high dose, N 12): 6235 ng·h/mL | AUClast Max ([1]; ENA-001 high dose, N 12): 13169 ng·h/mL | AUClast Min ([1]; ENA-001 high dose, N 12): 6169 ng·h/mL | CL Max ([1]; ENA-001 high dose, N 12): 67.8 L/h | CL Min ([1]; ENA-001 high dose, N 12): 23.8 L/h | Cmax Min ([1]; ENA-001 high dose, N 12): 1090 ng/mL | Cmin Geometric Mean ([1]; ENA-001 high dose, N 12): 867.4 ng/mL | Cmin Max ([1]; ENA-001 high dose, N 12): 1230 ng/mL | Cmin Mean ([1]; ENA-001 high dose, N 12): 886.6 ng/mL | Cmin Median ([1]; ENA-001 high dose, N 12): 859 ng/mL | Cmin Min ([1]; ENA-001 high dose, N 12): 601 ng/mL | t1/2 Max ([1]; ENA-001 high dose, N 12): 8.40 h | t1/2 Min ([1]; ENA-001 high dose, N 12): 3.39 h | tmax Max ([1]; ENA-001 high dose, N 12): 4.50 h | tmax Min ([1]; ENA-001 high dose, N 12): 1.92 h | AUCinf Max ([1]; ENA-001 low dose, N 12): 3148 ng·h/mL | AUCinf Min ([1]; ENA-001 low dose, N 12): 2155 ng·h/mL | AUClast Max ([1]; ENA-001 low dose, N 12): 3059 ng·h/mL | AUClast Min ([1]; ENA-001 low dose, N 12): 2151 ng·h/mL | CL Max ([1]; ENA-001 low dose, N 12): 75.5 L/h | CL Min ([1]; ENA-001 low dose, N 12): 41.9 L/h | Cmax Max ([1]; ENA-001 low dose, N 12): 563 ng/mL | Cmax Min ([1]; ENA-001 low dose, N 12): 375 ng/mL | Cmin Geometric Mean ([1]; ENA-001 low dose, N 12): 299.6 ng/mL | Cmin Max ([1]; ENA-001 low dose, N 12): 379 ng/mL | Cmin Mean ([1]; ENA-001 low dose, N 12): 302.3 ng/mL | Cmin Median ([1]; ENA-001 low dose, N 12): 296 ng/mL | Cmin Min ([1]; ENA-001 low dose, N 12): 251 ng/mL | t1/2 Max ([1]; ENA-001 low dose, N 12): 6.99 h | t1/2 Min ([1]; ENA-001 low dose, N 12): 3.00 h | tmax Max ([1]; ENA-001 low dose, N 12): 4.50 h | tmax Min ([1]; ENA-001 low dose, N 12): 3.33 h | Plasma values at 24 hours post-dose ([1]; all participants, both dose levels): above the LLOQ | AUC(0-inf) ([1]; ENA-001 high dose, N 12, read-out: AUCinf Geometric Mean): 8440 ng·h/mL | AUC(0-inf) ([1]; ENA-001 high dose, N 12, read-out: AUCinf Mean): 8710 ng·h/mL | AUC(0-inf) ([1]; ENA-001 high dose, N 12, read-out: AUCinf Median): 7800 ng·h/mL | AUC(0-t) ([1]; ENA-001 high dose, N 12, read-out: AUClast Geometric Mean): 8240 ng·h/mL | AUC(0-t) ([1]; ENA-001 high dose, N 12, read-out: AUClast Mean): 8500 ng·h/mL | AUC(0-t) ([1]; ENA-001 high dose, N 12, read-out: AUClast Median): 7540 ng·h/mL | clearance ([1]; ENA-001 high dose, N 12, read-out: CL Geometric Mean (converted)): 735 mL/min | clearance ([1]; ENA-001 high dose, N 12, read-out: CL Mean (converted)): 756 mL/min | clearance ([1]; ENA-001 high dose, N 12, read-out: CL Median (converted)): 772 mL/min | Cmax ([1]; ENA-001 high dose, N 12, read-out: Cmax Geometric Mean): 1510 ng/mL | Cmax ([1]; ENA-001 high dose, N 12, read-out: Cmax Mean): 1560 ng/mL | Cmax ([1]; ENA-001 high dose, N 12, read-out: Cmax Median): 1520 ng/mL | half-life ([1]; ENA-001 high dose, N 12, read-out: t1/2 Geometric Mean (converted)): 330 min | half-life ([1]; ENA-001 high dose, N 12, read-out: t1/2 Mean (converted)): 339 min | half-life ([1]; ENA-001 high dose, N 12, read-out: t1/2 Median (converted)): 338 min | Tmax ([1]; ENA-001 high dose, N 12, read-out: tmax Geometric Mean): 3.84 h | Tmax ([1]; ENA-001 high dose, N 12, read-out: tmax Mean): 3.96 h | Tmax ([1]; ENA-001 high dose, N 12, read-out: tmax Median): 4.36 h | AUC(0-inf) ([1]; ENA-001 low dose, N 12, read-out: AUCinf Geometric Mean): 2660 ng·h/mL | AUC(0-inf) ([1]; ENA-001 low dose, N 12, read-out: AUCinf Mean): 2670 ng·h/mL | AUC(0-inf) ([1]; ENA-001 low dose, N 12, read-out: AUCinf Median): 2650 ng·h/mL | AUC(0-t) ([1]; ENA-001 low dose, N 12, read-out: AUClast Geometric Mean): 2610 ng·h/mL | AUC(0-t) ([1]; ENA-001 low dose, N 12, read-out: AUClast Mean): 2630 ng·h/mL | AUC(0-t) ([1]; ENA-001 low dose, N 12, read-out: AUClast Median): 2630 ng·h/mL | clearance ([1]; ENA-001 low dose, N 12, read-out: CL Geometric Mean (converted)): 918 mL/min | clearance ([1]; ENA-001 low dose, N 12, read-out: CL Mean (converted)): 929 mL/min | clearance ([1]; ENA-001 low dose, N 12, read-out: CL Median (converted)): 885 mL/min | Cmax ([1]; ENA-001 low dose, N 12, read-out: Cmax Geometric Mean): 463 ng/mL | Cmax ([1]; ENA-001 low dose, N 12, read-out: Cmax Mean): 468 ng/mL | Cmax ([1]; ENA-001 low dose, N 12, read-out: Cmax Median): 477 ng/mL | half-life ([1]; ENA-001 low dose, N 12, read-out: t1/2 Geometric Mean (converted)): 299 min | half-life ([1]; ENA-001 low dose, N 12, read-out: t1/2 Mean (converted)): 306 min | half-life ([1]; ENA-001 low dose, N 12, read-out: t1/2 Median (converted)): 303 min | Tmax ([1]; ENA-001 low dose, N 12, read-out: tmax Geometric Mean): 4.25 h | Tmax ([1]; ENA-001 low dose, N 12, read-out: tmax Mean): 4.26 h | Tmax ([1]; ENA-001 low dose, N 12, read-out: tmax Median): 4.33 h | AUC(0-inf) ([1]; high dose, read-out: highest individual AUCinf): 13800 ng·h/mL | Cmax ([1]; high dose, read-out: highest individual Cmax): 2600 ng/mL | AUC(0-inf) ([1]; high dose, read-out: mean (±SD) AUCinf): 8710 ± 2420 ng·h/mL | Cmax ([1]; high dose, read-out: mean (±SD) Cmax): 1560 ± 437 ng/mL | half-life ([1]; high dose, read-out: range of apparent terminal t1/2): 203 to 504 min | Tmax ([1]; high dose, read-out: tmax (mean peak concentrations)): 3.96 h | AUC(0-inf) ([1]; low dose, read-out: mean (±SD) AUCinf): 2670 ± 330 ng·h/mL | Cmax ([1]; low dose, read-out: mean (±SD) Cmax): 468 ± 68.2 ng/mL | half-life ([1]; low dose, read-out: range of apparent terminal t1/2): 180 to 419 min | Tmax ([1]; low dose, read-out: tmax (mean peak concentrations)): 4.26 h | Plasma concentration decline after infusion stop ([1]; from 4 hour 30 minutes onwards): bi-exponential decline | Average tmin ([1]; high dose): 1.133 h | Geometric mean Cav30-270 min (average arterial plasma concentration during 30-270 min) ([1]; high dose): 1161.69 ng/mL | Maximum concentration on average following IV infusion loading dose ([1]; high dose, 20 minutes loading dose 2.0 mg/kg/h): 1162.833 ng/mL | average Compound A concentration per propofol dosing interval ([1]; high dose, high propofol 200-270 min): 1412.28 ng/mL | average Compound A concentration per propofol dosing interval ([1]; high dose, low propofol 115-185 min): 1206.27 ng/mL | average Compound A concentration per propofol dosing interval ([1]; high dose, no propofol 30-100 min): 971.79 ng/mL | Effect of propofol on Compound A concentrations ([1]; in vivo): No apparent effect | Dose proportionality of PK ([1]; investigated dosing range, dose normalised AUC and Cav): Dose proportionality of PK over the investigated dosing range was apparent; also recorded: Dose proportionality of PK was apparent over the investigated dosing range; also recorded: showed dose proportionality over the investigated dosing range | Average tmin ([1]; low dose): 1.201 h | Geometric mean Cav30-270 min (average arterial plasma concentration during 30-270 min) ([1]; low dose): 366.40 ng/mL | Maximum concentration on average following IV infusion loading dose ([1]; low dose, 10 minutes loading dose 2.0 mg/kg/h): 857.000 ng/mL | average Compound A concentration per propofol dosing interval ([1]; low dose, high propofol 200-270 min): 427.54 ng/mL | average Compound A concentration per propofol dosing interval ([1]; low dose, low propofol 115-185 min): 359.75 ng/mL | average Compound A concentration per propofol dosing interval ([1]; low dose, no propofol 30-100 min): 323.41 ng/mL | Steady state ([1]; within the 260 and 250 minute infusions): steady-state concentrations were not reached; also recorded: did not reach steady state | Nausea probably related to treatment ([2]; Compound A high dose, IV ondansetron pre-treatment): single occurrence of mild nausea | Treatment-related SAEs ([2]; in vivo): No treatment-related SAEs | Trend in AEs ([2]; in vivo): mild infusion site pain and related events | Safety and tolerability ([2]; two dose levels, healthy participants): safe and well tolerated; also recorded: favourable safety and tolerability profiles | Cardiovascular response [3]: No clinically meaningful difference on cardiovascular response | Level of propofol-induced sedation / arousal, BIS ([3]; with clinically relevant doses of propofol): did not impact the level of the propofol-induced sedation; also recorded: did not lead to a significant difference in arousal compared to placebo | Minute ventilation during hypoxic measurement [4, 6]: 38.8 L/min | Minute ventilation, pre-hypoxic baseline [4, 6]: 8.5 L/min | Minute ventilation during hypoxic measurement [4, 7]: 27.4 L/min | Minute ventilation, pre-hypoxic baseline [4, 7]: 8.4 L/min | ETCO2 difference prior to each hypoxic measurement ([4]; Compound A high dose compared to placebo and low dose): approximately 3 mmHg | Increase in minute ventilation induced by hypercapnia ([4]; Compound A high dose group, during high dose propofol): more pronounced | Respiratory rate at pre-hypoxic timepoints ([4]; Compound A high dose, during propofol infusion): difference between Compound A high dose compared to placebo and Compound A low dose could be observed | ETCO2 compared to placebo ([4]; Compound A low dose): comparable to placebo treatment | Hypoxic Sensitivity, First LSM of contrast ([4]; Compound A low dose (2 mg/kg/h 10 min then 0.4 mg/kg/h 260 min IV)): 0.747 L/min/% | Minute ventilation during hypoxic measurement [4, 8]: 30.3 L/min | Minute ventilation, pre-hypoxic baseline [4, 8]: 8.1 L/min | Minute ventilation during hypoxic measurement [4, 9]: 15.0 L/min | Minute ventilation, pre-hypoxic baseline [4, 9]: 6.3 L/min | Hypoxic sensitivity compared to placebo ([4]; both with and without co-administration of propofol): increased hypoxic sensitivity compared to placebo | Hypoxic Sensitivity, First LSM of contrast ([4]; high dose (2 mg/kg/h 20 min then 1.1 mg/kg/h 250 min IV)): 1.179 L/min/% | Hypoxic Sensitivity, Estimate of the difference ([4]; high dose minus placebo): 0.575 L/min/% | Hypoxic sensitivity during propofol ([4]; in vivo, 1.1 mg/kg): remain similar to pre-propofol values | Hypoxic Sensitivity, Estimate of the difference ([4]; low dose minus placebo): 0.144 L/min/% | Ventilatory stimulation ([5]; high dose (1.1 mg/kg/h), healthy participants, Roozekrans et al., 2014): clear ventilatory stimulation | Stimulatory effects on minute ventilation ([5]; low dose (0.4 mg/kg/h), McLeod et al., 2014): no/minimal stimulatory effects on minute ventilation | Nausea in previous studies ([5]; previous studies): nausea was associated with Compound A administration
